Experimental findings from ChEMBL document CHEMBL1201862, “PubChem BioAssay data set” (2004) are described below.

Test systems include HT-29; Malme-3M; SK-OV-3; M14; SF-295; A549; IGROV-1; KM12; MDA-MB-231; A498; SF-539; DU-145; SK-MEL-2; OVCAR-3; SK-MEL-28; HCC 2998; TK-10; UO-31; CCRF-CEM; SF-268.
Common to all, as to test: NCI anticancer screen, dose series, 48 h

SMILES strings stand for the structures.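 Growth conditions: 96-well plates. Treatment: test compound, 48 hours, 5 concentrations. Analysis: linear interpolation between bracketing concentrations; unreached endpoints set to highest concentration. At the GI50, growth is halved.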 Calls of active or inactive are those of the source. Cut-off read from the data, not from the text of the source: active = GI50 up to about 1.1 µM and inactive = higher.

As to `CC(=O)NCCC1CN(C(=O)/C=C\C#C[Si](C)(C)C)c2ccccc21` (stereo not given), the GI50 was 20.3 µM (inactive) with HT-29; 13.1 µM (inactive) with Malme-3M; 25.3 µM (inactive) in the experiment with SK-OV-3; 13.3 µM (inactive) in the experiment on M14; 21.5 µM (inactive) in the experiment with SF-295; 27.5 µM (inactive) in the experiment with A549. Besides, the GI50 in the experiment with IGROV-1 is 14.1 µM (inactive); with KM12, 24.7 µM (inactive); in the experiment with MDA-MB-231, 17.3 µM (inactive); with A498, 45.3 µM (inactive); in the experiment with SF-539, 20.3 µM (inactive); with DU-145, 23.3 µM (inactive). The GI50 is 14 µM (inactive) in the experiment on SK-MEL-2; 16 µM (inactive) with OVCAR-3; 50.8 µM (inactive) in the experiment with SK-MEL-28; 20.1 µM (inactive) in the experiment with HCC 2998; 23 µM (inactive) in the experiment on TK-10; 26.9 µM (inactive) with UO-31. The results for the GI50 in the experiment on CCRF-CEM and in the experiment on SF-268 were 11.8 µM (inactive) and 48.2 µM (inactive), respectively.
`N[C@@H]1c2c(Br)sc(Br)c2[C@H](O)[C@@H]1O`: the GI50 with HT-29, in the experiment on Malme-3M, in the experiment with SK-OV-3, in the experiment with M14, with SF-295 and with A549 was > 100 µM (inactive) in each case. Further, the GI50 in the experiment with IGROV-1, in the experiment on KM12, with MDA-MB-231, with A498, in the experiment on SF-539 and with DU-145 was > 100 µM (inactive) in each case. Moreover, the GI50 in the experiment on SK-MEL-2, in the experiment with OVCAR-3, in the experiment on SK-MEL-28, in the experiment with HCC 2998, in the experiment on TK-10 and in the experiment with UO-31 was > 100 µM (inactive) each time. In addition, the GI50 with CCRF-CEM and in the experiment with SF-268 was > 100 µM (inactive) throughout.
Consider `O=S(=O)(O)c1cc(/N=[N+](\[O-])c2cc(S(=O)(=O)O)c3ccccc3c2)cc2ccccc12`, for which the GI50 was > 100 µM (inactive) in the experiment on HT-29; 45.5 µM (inactive) in the experiment on Malme-3M; > 100 µM (inactive) in the experiment on SK-OV-3; 35.7 µM (inactive) with M14; 35.6 µM (inactive) with SF-295; > 100 µM (inactive) in the experiment with A549. For the same compound, the GI50 in the experiment on IGROV-1 is 33.9 µM (inactive); with KM12, > 100 µM (inactive); in the experiment with MDA-MB-231, > 100 µM (inactive); in the experiment with A498 it was > 100 µM (inactive); in the experiment with SF-539 it was 16.8 µM (inactive); with DU-145, 19.5 µM (inactive). The GI50 in the experiment with SK-MEL-2 was 24.7 µM (inactive); with OVCAR-3 it was 12.4 µM (inactive); with SK-MEL-28 it was > 100 µM (inactive); in the experiment on HCC 2998 it was > 100 µM (inactive); in the experiment with TK-10, > 100 µM (inactive); with UO-31 it was 20.9 µM (inactive). Also, the GI50 in the experiment with CCRF-CEM was 29.7 µM (inactive); with SF-268 it was > 100 µM (inactive).
`O=[N+]([O-])/C=C/c1c(Cl)cccc1Cl`: the GI50 is 2.45 µM (inactive) in the experiment with HT-29; 3.05 µM (inactive) with Malme-3M; 20.8 µM (inactive) with SK-OV-3; 1.48 µM (inactive) in the experiment with M14; 7.87 µM (inactive) in the experiment on SF-295; 8.63 µM (inactive) in the experiment on A549. The GI50 in the experiment on IGROV-1 is 3.65 µM (inactive); in the experiment with KM12 it was 1.58 µM (inactive); in the experiment with MDA-MB-231, 1.91 µM (inactive); in the experiment with A498 it was 16.4 µM (inactive); with SF-539, 2.37 µM (inactive); in the experiment with DU-145, 9.06 µM (inactive). Moreover, the GI50 was 5.94 µM (inactive) with SK-MEL-2; 1.3 µM (inactive) in the experiment on OVCAR-3; 4.97 µM (inactive) in the experiment with SK-MEL-28; 3.45 µM (inactive) in the experiment with HCC 2998; 2.67 µM (inactive) in the experiment on TK-10; 3.76 µM (inactive) in the experiment on UO-31. Also, the GI50 in the experiment with CCRF-CEM was 1.23 µM (inactive); in the experiment on SF-268 it was 4.32 µM (inactive).
For `CN(Cc1cccc2ccccc12)Cc1cccc2ccccc12`, the GI50 in the experiment on HT-29 was 15.4 µM (inactive); in the experiment with Malme-3M, 20 µM (inactive); with SK-OV-3, 65.6 µM (inactive); in the experiment on M14 it was 27.5 µM (inactive); with SF-295 it was 26.7 µM (inactive); in the experiment on A549 it was 34 µM (inactive). Further, the GI50 in the experiment on IGROV-1 was 32.2 µM (inactive); with KM12, 41.5 µM (inactive); in the experiment on MDA-MB-231, 21.8 µM (inactive); in the experiment with A498, 28.8 µM (inactive); with SF-539 it was 23.8 µM (inactive); in the experiment on DU-145, 54 µM (inactive). Also, the GI50 was 14.1 µM (inactive) in the experiment on SK-MEL-2; 44.4 µM (inactive) with OVCAR-3; 35.2 µM (inactive) with SK-MEL-28; 22.7 µM (inactive) in the experiment on HCC 2998; > 100 µM (inactive) in the experiment on TK-10; 36.6 µM (inactive) in the experiment on UO-31. Also, the GI50 in the experiment on CCRF-CEM was 16.6 µM (inactive); in the experiment with SF-268 it was 41.6 µM (inactive).
Consider `CC(C)C[P+](c1ccccc1)(c1ccccc1)c1ccccc1`, for which the GI50 in the experiment with HT-29 is 3.64 µM (inactive); with Malme-3M it was 5.7 µM (inactive); in the experiment on SK-OV-3, 19.8 µM (inactive); in the experiment on M14 it was 8.41 µM (inactive); with SF-295, 13.2 µM (inactive); in the experiment on A549, 6.22 µM (inactive). Besides, the GI50 with IGROV-1 is 13.3 µM (inactive); in the experiment with KM12, 1.79 µM (inactive); in the experiment with MDA-MB-231, 31.8 µM (inactive); with A498, 32.1 µM (inactive); in the experiment with SF-539, 14.8 µM (inactive); in the experiment with DU-145 it was 6.95 µM (inactive). For the same compound, the GI50 in the experiment with SK-MEL-2 was 4.36 µM (inactive); in the experiment with OVCAR-3, 2.31 µM (inactive); in the experiment with SK-MEL-28, 22.6 µM (inactive); in the experiment on HCC 2998 it was 8.57 µM (inactive); with TK-10, 7.08 µM (inactive); with UO-31, 45.5 µM (inactive). Further, the GI50 in the experiment with CCRF-CEM is 0.419 µM (active); in the experiment with SF-268, 10.3 µM (inactive).
